From patent publication US20090156657A1, “ANTI-INFLAMMATORY COMPOSITION” (Ajinomoto Co., Inc., priority 2006, published 2009)

Tested on: blood NOx
Test: IBD model mouse: blood NOx concentration
Format: in vivo
Conditions: IBD model mice, diet 3 weeks, vs Control group; FIG. 13
Protocol: By the activation of leukocytes in an inflammatory response, a large amount of NO is produced by the cells, and the blood concentration of NOx, a metabolite, increases. It is known that blood NOx concentration becomes one index of inflammatory response in living organisms due to this mechanism (Yuka Ikenoue et al., International Immunopharmacology 5 (2005) 993-1006). The NOx concentration of the blood obtained in Example 10 was measured using an “Nitric Oxide Quantitation Kit (ACTIVE MOTIF)”.

COc1cc(/C=C/C(=O)NCCc2c[nH]c3ccc(O)cc23)ccc1O [FS, N-feruloyl serotonin]
blood NOx concentration: tendency toward decrease
